For one experiment, the target named is T1, Arabidopsis HPPD (Arabidopsis thaliana, UniProt P93836).
T1 construct: made in house; host or cells: E. coli BL21 (DE3) codon+ RP
T1 sequence (P93836 1-445): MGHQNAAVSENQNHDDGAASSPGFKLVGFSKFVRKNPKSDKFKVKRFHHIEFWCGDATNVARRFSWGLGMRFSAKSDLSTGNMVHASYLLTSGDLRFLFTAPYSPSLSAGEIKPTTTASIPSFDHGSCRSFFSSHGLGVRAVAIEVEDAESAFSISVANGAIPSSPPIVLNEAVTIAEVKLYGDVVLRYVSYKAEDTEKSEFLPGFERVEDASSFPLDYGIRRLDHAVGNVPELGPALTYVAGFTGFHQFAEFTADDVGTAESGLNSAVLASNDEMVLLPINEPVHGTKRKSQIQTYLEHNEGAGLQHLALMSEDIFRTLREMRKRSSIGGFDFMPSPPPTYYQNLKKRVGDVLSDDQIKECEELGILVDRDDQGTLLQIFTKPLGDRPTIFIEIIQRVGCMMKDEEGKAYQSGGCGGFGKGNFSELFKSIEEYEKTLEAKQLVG
The experiment is described as follows: Dissociation of enzyme/inhibitor complexes by exchange with 14C-labelled inhibitor (koff; Kd = koff/kon). Format: binding. On the procedure:
It will be appreciated that many suitable methods known in the art for determining such low koff values are suitable for working the current invention. These include measuring rates of exchange of radio or otherwise labelled inhibitors either with or away from the enzyme inhibitor complex. For example enzyme inhibitor complexes can readily be prepared by incubating HPPD preparations with labelled or unlabelled inhibitor and then, after suitable periods, optionally rapidly separating the thus formed enzyme inhibitor complex from excess inhibitor by any suitable method such as ultrafiltration, binding to filters or exchange down a gel filtration column. Exchange reactions with the, thus prepared enzyme inhibitor complex is then initiated by addition of, as appropriate, excess labelled or unlabelled inhibitor. […] Many methods such as radiometric, fluorimetric, NMR, fluorescence depolarisation, EPR, Mossbauer, UV/VIS spectrophotometry etc. or phonon resonance can, in principle, be used to monitor the enzyme/ligand exchange reactions and, particularly in this case where the enzyme contains an iron atom at the ligand binding site. Optionally, the monitoring method may be continuous (as, for example, with scintillation proximity/bead-based methods) or, discontinuous, based upon collection of data at various timepoints wherein samples are removed and the bound and unbound label components rapidly separated and quantitated.
(§1) Values of koff can suitably be calculated by computer fitting based upon is numerical integration of the exchange data along with information on the active-site concentration of HPPD and upon kon values obtained as described below. […] In any event, koff values are always here calculated from the rate of the major slow exchange reaction.
^14C mesotrione is of specific activity 1.12 GBq/mmol. […] Following this initial binding reaction, exchange reactions are initiated by addition of cold mesotrione to a final concentration of 60 μM and 200 μl aliquots removed at various times to rapid chromatography down a NAP5 gel filtration column equilibrated in 50 mM BTP at pH 7 containing 0.1 M KCl, separation into fractions containing protein-bound or free radiolabel and liquid scintillation counting.
Nevertheless, here, for practical purposes, koff values are always here calculated from the rate of the major slow exchange reaction.
Not all test inhibitors are readily available in a radiolabelled form.

The target of another experiment is Wheat HPPD (Triticum aestivum, UniProt A0A3B6NLC6). The experiment is described as above. Format: binding.
Description: (§2) Herbicidal inhibitors of HPPD are found here to have generally low values of koff (in the range less than 0.0003 s^−1, often less than 0.000001 s^−1). It will be appreciated that many suitable methods known in the art for determining such low koff values are suitable for working the current invention. These include measuring rates of exchange of radio or otherwise labelled inhibitors either with or away from the enzyme inhibitor complex. For example enzyme inhibitor complexes can readily be prepared by incubating HPPD preparations with labelled or unlabelled inhibitor and then, after suitable periods, optionally rapidly separating the thus formed enzyme inhibitor complex from excess inhibitor by any suitable method such as ultrafiltration, binding to filters or exchange down a gel filtration column. Exchange reactions with the, thus prepared enzyme inhibitor complex is then initiated by addition of, as appropriate, excess labelled or unlabelled inhibitor. HPPD preparations suitable for use in the methods of the current invention are relatively unpurified, buffer-exchanged, supernatant fractions of spun crude lysates of E. coli strains engineered to express the HPPD enzyme of interest at a level of, typically, about 0.25-10% of the total soluble protein. Many methods such as radiometric, fluorimetric, NMR, fluorescence depolarisation, EPR, Mossbauer, UV/VIS spectrophotometry etc. or phonon resonance can, in principle, be used to monitor the enzyme/ligand exchange reactions and, particularly in this case where the enzyme contains an iron atom at the ligand binding site. Optionally, the monitoring method may be continuous (as, for example, with scintillation proximity/bead-based methods) or, discontinuous, based upon collection of data at various timepoints wherein samples are removed and the bound and unbound label components rapidly separated and quantitated.
as §1, with “reaction. It will be appreciated that within the scope of the current invention many methods of making the desired kinetic comparisons are possible without explicit or rigorous determination of off rates but, based upon the same underlying principle, will achieve the same selection result.” for “reaction.”
The dissociation rates (off rates) of inhibitors selected from Formula 1 and/or 2 and/or 3 and/or 4 from the complexes that they form with test and control HPPD enzymes are suitably measured in a number of ways. Thus, for example, the rates of dissociation of mesotrione, a compound selected from Formula 1 and of the diketonitrile of isoxaflutole, a compound selected from Formula 3 from their respective complexes with, test, wheat HPPD and with, control, Arabidopsis HPPD are compared. The method and results from a typical test are as follows.
^14C mesotrione is of specific activity 1.12 GBq/mmol. This is ˜95% pure radiochemically by TLC and based upon the proportion of material tight-binding to HPPD. Arabidopsis and, (test), wheat HPPD are each diluted to a concentration of ˜0.45 and 0.54 μM, respectively into 1.6 ml of 50 mM Bis-Tris propane buffer at pH 7.0 containing 25% glycerol, 25 mM sodium ascorbate and 3 mg/l of bovine catalase (Sigma C3155˜50,000 units/mg) containing […] ^14C mesotrione and left to react at 25 C for 2.5-3 h. Following this initial binding reaction, exchange reactions are initiated by addition of cold mesotrione to a final concentration of 60 μM and 200 μl aliquots removed at various times to rapid chromatography down a NAP5 gel filtration column equilibrated in 50 mM BTP at pH 7 containing 0.1 M KCl, separation into fractions containing protein-bound or free radiolabel and liquid scintillation counting. […]

For the next experiment, the target named is P. fluorescens HPPD (Pseudomonas fluorescens, UniProt A0ACG8AE61). Described as above. Format: binding.
Description: as §2
as §1, with “reaction. It will be appreciated that within the scope of the current invention many methods of making the desired kinetic comparisons are possible without explicit or rigorous determination of off rates but, based upon the same underlying principle, will achieve the same selection result. […]” for “reaction.”
Not all test inhibitors are readily available in a radiolabelled form. A more general method of measuring off rates is to first form the complex with unlabelled test inhibitor, to rapidly exchange the complex free of excess unlabelled inhibitor and to then start the exchange reaction by addition of an excess of a standard labelled inhibitor, the kinetic properties of which are already known. The reaction is then monitored and the relative proportions of bound and unbound label determined at various times. […] The latter is the method of choice when the rate of exchange is fast (t½<3 h).
In, variants of the above methods, off rates are measured either in the presence or absence of ˜25% v/v glycerol. In the presence of glycerol values obtained are generally ˜1.5-3× slower than in its absence although sometimes the change is outside this range or, even, in the other direction. Further examples of data obtained are depicted in the following Table 3.
Crude Extracts of recombinant E. coli strains expressing, in the one case, a control HPPD (from Arabidopsis) and, in the other, one or more test HPPD sequences are prepared as described in the preceding example. The titre of active sites and enzyme activity are also defined and measured as described in the preceding examples. […]

The target of the next experiment is Avena HPPD (Avena sativa, UniProt A0ACD5V6K6). Briefly: In vitro measurements of Avena HPPD (dissociation rate constants, Ki). In kind it is binding. As to conditions: read-out: rate constants governing dissociation of the complexes.
Experiment [1] deals with untransformed tobacco plants variety Samsun. Briefly: Glasshouse spray test, visible damage. Format: in vivo. As to conditions: spray 0.0 to 2000 g/ha, assessed ~1 and 3 weeks after treatment. On the procedure: (§3) Plants are 1) untransformed tobacco plants variety Samsun expressing the endogenous tobacco (control) HPPD gene, 2) tobacco plants transformed to express Pseudomonas HPPD according to the examples herein and 3) tobacco plants transformed to express Wheat HPPD also according to the examples herein.
(§4) Large numbers of plants are grown from seed in small pots in the glasshouse to the 5-7 leaf seedling stage and sprayed with a range of doses, suitably from 0.0 to 2000 g/ha, of different HPPD-inhibitor herbicides selected from compounds of Formula 1, 2, 3 and 4. Treatments are suitably Formulated in, for example, deionised water+0.5% Turbocharge™ surfactant or, alternatively, 50% acetone/water and applied at […] to a dozen or more replicates of each line and at each spray rate (where the plants were T1 plants (selfed progeny of primary transformants) and still segregating at normally 1:2:1) or, where, homozygous, 3-6 plants. The extent of visible damage in terms of bleaching of meristems and leaves, eventual necrosis and stunting of growth relative to unsprayed controls is assessed at ˜1 and 3 weeks after treatment. Data from susceptible segregants are excluded from the analysis. In summary, results obtained are as follows.

Experiment [2] has as its system tobacco plants transformed to express wheat HPPD. The experiment is described as follows: Glasshouse spray test, visible damage. In kind it is in vivo. On the procedure:
as §3, §4

For experiment [3] the test system is unchanged. The experiment is described as follows: Tolerance of tobacco transformed with wheat HPPD to herbicides. In kind it is in vivo. Particulars: in vivo.
Description: These constructs were all transformed into Agrobacterium tumefaciens strain LBA4404, which in turn was used to transform tobacco, using methodology described previously.
Explants (i.e. a leaf plus short segment of stem containing the auxiliary bud) are placed into MS agar (+3% sucrose) containing various concentrations of mesotrione (see above) from 0.02 to 2 ppm.
The test system of experiment [4] is tobacco plants transformed with Avena sativa 4-HPPD gene. The experiment is described as follows: Tolerance of tobacco transformed with Avena sativa HPPD to herbicides. As to conditions: in vivo. From the text: The structure of the resulting vector is shown schematically in FIG. 4.
The 4-HPPD plant expression cassette is then ligated in to the binary vector pBin19 restricted with Hind III and EcoRI and transformed into E. coli TOP10 cells (Invitrogen). This binary vector is then transformed into tobacco using methods well known in the art and, for example, as described elsewhere herein.

For orientation: Kd means the constant that tells how readily two partners part at equilibrium.

The structures appear in SMILES notation. A value given as a limit tells only on which side of the number the result lay.

P. fluorescens HPPD, sequence (A0ACG8AE61 entry or part of it): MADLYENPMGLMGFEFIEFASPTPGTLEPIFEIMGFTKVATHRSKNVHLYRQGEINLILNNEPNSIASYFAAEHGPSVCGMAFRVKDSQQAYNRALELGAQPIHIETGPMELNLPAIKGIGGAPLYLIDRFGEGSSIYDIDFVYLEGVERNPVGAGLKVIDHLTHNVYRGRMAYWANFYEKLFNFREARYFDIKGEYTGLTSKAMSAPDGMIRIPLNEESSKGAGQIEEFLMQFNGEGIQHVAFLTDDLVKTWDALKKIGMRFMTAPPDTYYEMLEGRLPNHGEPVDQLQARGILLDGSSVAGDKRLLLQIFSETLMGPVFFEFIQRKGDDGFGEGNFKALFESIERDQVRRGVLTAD
Wheat HPPD, sequence (A0A3B6NLC6 entry or part of it): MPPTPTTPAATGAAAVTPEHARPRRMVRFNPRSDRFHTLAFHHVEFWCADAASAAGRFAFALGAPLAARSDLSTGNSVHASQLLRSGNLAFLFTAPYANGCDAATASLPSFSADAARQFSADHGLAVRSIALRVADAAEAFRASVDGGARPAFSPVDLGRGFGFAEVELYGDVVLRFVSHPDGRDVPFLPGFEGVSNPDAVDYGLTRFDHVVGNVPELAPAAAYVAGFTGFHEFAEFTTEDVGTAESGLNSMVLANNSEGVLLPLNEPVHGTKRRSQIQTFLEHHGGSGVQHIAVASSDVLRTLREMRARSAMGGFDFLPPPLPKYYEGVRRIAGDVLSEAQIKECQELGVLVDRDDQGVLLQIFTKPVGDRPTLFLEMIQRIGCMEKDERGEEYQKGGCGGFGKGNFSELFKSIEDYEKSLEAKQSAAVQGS
Avena HPPD, sequence (A0ACD5V6K6 entry or part of it): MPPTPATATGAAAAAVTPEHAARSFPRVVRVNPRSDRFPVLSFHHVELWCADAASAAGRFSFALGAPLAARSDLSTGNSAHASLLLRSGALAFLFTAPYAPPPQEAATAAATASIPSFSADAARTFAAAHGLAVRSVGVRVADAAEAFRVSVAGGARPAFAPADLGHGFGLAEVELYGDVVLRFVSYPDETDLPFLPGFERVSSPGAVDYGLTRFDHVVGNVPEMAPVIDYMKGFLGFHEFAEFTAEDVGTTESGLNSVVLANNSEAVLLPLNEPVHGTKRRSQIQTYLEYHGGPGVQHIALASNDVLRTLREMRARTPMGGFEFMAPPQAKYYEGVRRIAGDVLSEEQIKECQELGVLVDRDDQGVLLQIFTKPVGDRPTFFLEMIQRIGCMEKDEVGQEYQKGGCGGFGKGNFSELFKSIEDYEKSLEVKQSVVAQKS

Take `CC1(C)C(=O)C(C(=O)c2ccc(Cl)cc2[N+](=O)[O-])C(=O)C(C)(C)C1=O` [Structure V, 2-[2-nitro-4-chlorobenzoyl]-4,4,6,6-tetramethylcyclohexane-1,3,5-trione]: the Kd at Arabidopsis HPPD is 4 pM; on Wheat HPPD (Kd, without glycerol, Kd = koff/kon) it was 0.011 nM; at P. fluorescens HPPD (without glycerol, Kd = koff/kon, read-out: Kd), over 1.5 nM. For the same compound, the “ratio Kd4/Kd1, structure V to structure I” value at Arabidopsis HPPD was 0.28; on P. fluorescens HPPD it was over 4.3. The koff at Arabidopsis HPPD (− glycerol) was 1.25e-06 s⁻¹; on Wheat HPPD (− glycerol), 4.2e-06 s⁻¹; at P. fluorescens HPPD (− glycerol), over 0.0002 s⁻¹; at Avena HPPD, under 4e-06 s⁻¹.

Regarding `CS(=O)(=O)c1cc(C(F)(F)F)ccc1C(=O)c1cnoc1C1CC1` [isoxaflutole, 5-cyclopropyl-4-(2-methylsulphonyl-4-trifluoromethylbenzoyl)-isoxazole], the “fold more susceptible of the herbicide than of mesotrione” value in experiment [1] is reported as 1-2 fold. The “fold less susceptible of mesotrione than of the named herbicide” value in experiment [2] is 4-10 fold. Also, the “resistance of the transgenic plants compared with that to mesotrione” value in experiment [3] and in experiment [4] was “substantially less resistant” throughout.
